# In patent US20090069419A1, “MASKED CARBOXYLATE NEOPENTYL SULFONYL ESTER CYCLIZATION RELEASE PRODRUGS OF ACAMPROSATE, COMPOSITIONS THEREOF, AND METHODS OF USE” (priority 2007, published 2009):
# Assays:
# [1] = cited from earlier work
# [2] = doses of about 1-2 gm per day, cited from earlier work
# [3] = system: cocaine conditioned mice; settings: 100 mg/kg for 3 days; cited from earlier work
SMILES,melting point,mean elimination half-life ([1]; following intravenous infusion (15 min)),"oral bioavailability ([1]; humans, oral)",steady-state plasma concentration [2],time at which steady-state plasma concentration occurs ([2]; post-dose),relapse-like behavior [3]
"CC(=O)NCCCS(=O)(=O)OCC(C)(C)CCC(=O)O [Compound 28, 5-{[3-(Acetylamino)propyl]sulfonyloxy}-4,4-dimethylpentanoic Acid]",105.3 to 124.9 °C,,,,,
"CC(=O)NCCCS(=O)(=O)O [acamprosate, 3-(Acetylamino)propylsulfonic acid]",,3.2 ± 0.2 h,about 11%,370 to 640 ng/mL,3 to 8 h,attenuated relapse-like behavior
